How the values were obtained:
[1] = Solubility study of ophthalmically acceptable excipients (visual, incremental addition of drug, then heating); assay type: physicochemical
[2] = Solubility study of oil/surfactant combination (excess drug, heating, centrifugation, HPLC of supernatant); assay type: physicochemical; settings: for mg API dissolved temperature: on heating; for Assay: supernatant by HPLC
Experimental: Additional solubility trials were planned in order to see the impact of surfactant/oil combination on solubility of Brinzolamide. 5 g of each of the vehicles of Table 2 was added in 10 ml beakers under stirring, containing excesses of drug. Afterwards, the mixture was heated to improve solubilization. After equilibrium was achieved, the mixture was centrifuged at 4000 rpm for 10 minutes and the supernatant was quantified by high-performance liquid chromatography.

[3] = as above; assay type: physicochemical; settings: in PEG 200 (5 g), on heating
[4] = cited from earlier work
[5] = in Kolliphor EL + IPM (5 g + 1 g)
[6] = in Kolliphor EL + IPM (5 g + 3 g)
[7] = in Kolliphor EL + IPM (5 g + 5 g)
[8] = in Tween 80 + IPM + Kolliphor EL (5 g + 1 g + 3.1 g)
[9] = in Tween 80 + IPM + Kolliphor EL (5 g + 1 g + 4.6 g)
[10] = in Tween 80 + IPM + Kolliphor EL (5 g + 1 g + 12.5 g)

With `CCN[C@H]1CN(CCCOC)S(=O)(=O)c2sc(S(N)(=O)=O)cc21` [Brinzolamide, (R)-4-ethylamino-3,4-dihydro-2-(3-methoxy) propyl-2H-thieno[3,2-e]-1,2-thiazine-6-sulfonamide 1, 1 dioxide] as the compound, how does the “Brinzolamide dissolved in 10 g” value ([1]; in Anfopon) read?
Its value is 60 mg.

What about the “Brinzolamide dissolved in 10 g” value ([1]; in Dubcare Olga SF) of the same compound?
Its value is 60 mg.

What about the “Brinzolamide dissolved in 10 g” value ([1]; in Isopropyl Myristate (Kollicream IPM)) of the same compound?
Its value is 60 mg.

And the “Brinzolamide dissolved in 10 g” value ([1]; in Kolliphor EL)?
Its value is 1015.1 mg.

What about the “Brinzolamide dissolved in 10 g” value ([1]; in Kollisolv GTA) of the same compound?
Its value is 210 mg.

And the “Brinzolamide dissolved in 10 g” value ([1]; in Myritol 318)?
Its value is 60 mg.

And the “Brinzolamide dissolved in 10 g” value ([1]; in PEG200)?
The value was 2000 mg.

And the “Brinzolamide dissolved in 10 g” value ([1]; in Radia 7104)?
Its value is 60 mg.

And the “Brinzolamide dissolved in 10 g” value ([1]; in Sesame Oil)?
Its value is 60 mg.

What about the “Brinzolamide dissolved in 10 g” value ([1]; in Silicone Oil) of the same compound?
The value was 60 mg.

What about the “Brinzolamide dissolved in 10 g” value ([1]; in Transcutol) of the same compound?
The value was 800 mg.

What about the “Brinzolamide dissolved in 10 g” value ([1]; in Tween 80) of the same compound?
The value was 2000 mg.

And the API dissolved ([2]; in Kolliphor EL (5 g))?
The API dissolved was 203.0 mg/mL.

And the Total mg dissolved ([2]; in Kolliphor EL (5 g))?
The Total mg dissolved was 1015.1 mg.

What about the “mg API dissolved @ RT” value ([2]; in Kolliphor EL (5 g)) of the same compound?
Its value is 502.6 mg.

What about the “mg API dissolved temperature” value ([2]; in Kolliphor EL (5 g)) of the same compound?
Its value is 512.5 mg.

And the “Assay” value ([2]; in Kolliphor EL (5 g))?
The value was 177.65 mg/mL.

And the API dissolved [2, 5]?
The API dissolved was 167.1 mg/mL.

And the Total mg dissolved [2, 5]?
Its Total mg dissolved is 1002.3 mg.

And the “mg API dissolved @ RT” value [2, 5]?
Its value is 802.3 mg.

And the “mg API dissolved temperature” value [2, 5]?
Its value is 200.0 mg.

And the “Assay” value [2, 5]?
The value was 104.70 mg/mL.

And the API dissolved [2, 6]?
Its API dissolved is 126.6 mg/mL.

What about the Total mg dissolved [2, 6] of the same compound?
Its Total mg dissolved is 1012.7 mg.

What about the “mg API dissolved @ RT” value [2, 6] of the same compound?
Its value is 500.5 mg.

What about the “mg API dissolved temperature” value [2, 6] of the same compound?
Its value is 512.2 mg.

And the “Assay” value [2, 6]?
Its value is 76.75 mg/mL.

What about the API dissolved [2, 7] of the same compound?
The API dissolved was 70.8 mg/mL.

What about the Total mg dissolved [2, 7] of the same compound?
The Total mg dissolved was 708.0 mg.

What about the “mg API dissolved @ RT” value [2, 7] of the same compound?
The value was 401.3 mg.

And the “mg API dissolved temperature” value [2, 7]?
Its value is 306.7 mg.

What about the “Assay” value [2, 7] of the same compound?
The value was 68.97 mg/mL.

What about the API dissolved ([2]; in PEG 200 (5 g)) of the same compound?
The API dissolved was 390.1 mg/mL.

And the Total mg dissolved ([2]; in PEG 200 (5 g))?
The Total mg dissolved was 1950.5 mg.

And the “mg API dissolved @ RT” value ([2]; in PEG 200 (5 g))?
The value was 908.2 mg.

What about the “Assay” value ([2]; in PEG 200 (5 g)) of the same compound?
The value was 236.63 mg/mL.

And the API dissolved ([2]; in Transcutol (5 g))?
Its API dissolved is 400.0 mg/mL.

What about the Total mg dissolved ([2]; in Transcutol (5 g)) of the same compound?
The Total mg dissolved was 2.000 mg.

What about the “mg API dissolved @ RT” value ([2]; in Transcutol (5 g)) of the same compound?
The value was 1008.5 mg.

And the “mg API dissolved temperature” value ([2]; in Transcutol (5 g))?
The value was 991.5 mg.

And the “Assay” value ([2]; in Transcutol (5 g))?
Its value is 189.94 mg/mL.

And the API dissolved ([2]; in Tween 80 (5 g))?
The API dissolved was 204.2 mg/mL.

And the Total mg dissolved ([2]; in Tween 80 (5 g))?
The Total mg dissolved was 1020.9 mg.

And the “mg API dissolved @ RT” value ([2]; in Tween 80 (5 g))?
Its value is 501.9 mg.

What about the “mg API dissolved temperature” value ([2]; in Tween 80 (5 g)) of the same compound?
Its value is 519.0 mg.

And the “Assay” value ([2]; in Tween 80 (5 g))?
The value was 169.08 mg/mL.

And the API dissolved ([2]; in Tween 80 + IPM (5 g + 1 g))?
Its API dissolved is 133.8 mg/mL.

What about the Total mg dissolved ([2]; in Tween 80 + IPM (5 g + 1 g)) of the same compound?
The Total mg dissolved was 802.8 mg.

What about the “mg API dissolved @ RT” value ([2]; in Tween 80 + IPM (5 g + 1 g)) of the same compound?
The value was 400.9 mg.

What about the “mg API dissolved temperature” value ([2]; in Tween 80 + IPM (5 g + 1 g)) of the same compound?
The value was 401.9 mg.

What about the “Assay” value ([2]; in Tween 80 + IPM (5 g + 1 g)) of the same compound?
Its value is 113.05 mg/mL.

What about the API dissolved ([2]; in Tween 80 + IPM (5 g + 3 g)) of the same compound?
The API dissolved was 100.3 mg/mL.

What about the Total mg dissolved ([2]; in Tween 80 + IPM (5 g + 3 g)) of the same compound?
Its Total mg dissolved is 802.7 mg.

What about the “mg API dissolved @ RT” value ([2]; in Tween 80 + IPM (5 g + 3 g)) of the same compound?
The value was 400.3 mg.

What about the “mg API dissolved temperature” value ([2]; in Tween 80 + IPM (5 g + 3 g)) of the same compound?
Its value is 402.4 mg.

What about the “Assay” value ([2]; in Tween 80 + IPM (5 g + 3 g)) of the same compound?
Its value is 84.49 mg/mL.

And the API dissolved ([2]; in Tween 80 + IPM (5 g + 5 g))?
The API dissolved was 90.9 mg/mL.

What about the Total mg dissolved ([2]; in Tween 80 + IPM (5 g + 5 g)) of the same compound?
Its Total mg dissolved is 908.6 mg.

What about the “mg API dissolved @ RT” value ([2]; in Tween 80 + IPM (5 g + 5 g)) of the same compound?
The value was 400.0 mg.

And the “mg API dissolved temperature” value ([2]; in Tween 80 + IPM (5 g + 5 g))?
The value was 508.6 mg.

And the “Assay” value ([2]; in Tween 80 + IPM (5 g + 5 g))?
Its value is 52.08 mg/mL.

And the API dissolved [2, 8]?
Its API dissolved is 110.9 mg/mL.

And the Total mg dissolved [2, 8]?
Its Total mg dissolved is 1009.1 mg.

What about the “mg API dissolved @ RT” value [2, 8] of the same compound?
The value was 501.5 mg.

And the “mg API dissolved temperature” value [2, 8]?
The value was 507.6 mg.

And the “Assay” value [2, 8]?
Its value is 88.93 mg/mL.

And the API dissolved [2, 9]?
Its API dissolved is 110.1 mg/mL.

What about the Total mg dissolved [2, 9] of the same compound?
The Total mg dissolved was 1002.1 mg.

What about the “mg API dissolved @ RT” value [2, 9] of the same compound?
Its value is 404.0 mg.

What about the “mg API dissolved temperature” value [2, 9] of the same compound?
Its value is 602.1 mg.

And the “Assay” value [2, 9]?
The value was 102.12 mg/mL.

What about the API dissolved [2, 10] of the same compound?
Its API dissolved is 43.5 mg/mL.

What about the Total mg dissolved [2, 10] of the same compound?
The Total mg dissolved was 805.6 mg.

What about the “mg API dissolved @ RT” value [2, 10] of the same compound?
Its value is 403.4 mg.

What about the “mg API dissolved temperature” value [2, 10] of the same compound?
The value was 402.2 mg.

What about the “Assay” value [2, 10] of the same compound?
Its value is 39.65 mg/mL.

What about the “mg API dissolved temperature” value [3] of the same compound?
The value was 1042.3 mg.

What about the “solubility in alcohol and methanol” value ([4]; alcohol and methanol) of the same compound?
Its value is “slightly soluble”.

And the “solubility in water versus pH” value ([4]; water, different pH)?
Its value is “pH dependent with minimal solubility at neutral pH and increased solubility at more basic or acidic pH”.

And the solubility in water ([4]; water)?
The solubility in water was “insoluble”.
